The target of data set [1] is T1, full-length beta-Catenin (Uniprot ID P35222) (Homo sapiens, UniProt P35222).
T1 construct: 10 nM full-length beta-Catenin (Uniprot ID P35222)
T1 sequence (P35222 1-781): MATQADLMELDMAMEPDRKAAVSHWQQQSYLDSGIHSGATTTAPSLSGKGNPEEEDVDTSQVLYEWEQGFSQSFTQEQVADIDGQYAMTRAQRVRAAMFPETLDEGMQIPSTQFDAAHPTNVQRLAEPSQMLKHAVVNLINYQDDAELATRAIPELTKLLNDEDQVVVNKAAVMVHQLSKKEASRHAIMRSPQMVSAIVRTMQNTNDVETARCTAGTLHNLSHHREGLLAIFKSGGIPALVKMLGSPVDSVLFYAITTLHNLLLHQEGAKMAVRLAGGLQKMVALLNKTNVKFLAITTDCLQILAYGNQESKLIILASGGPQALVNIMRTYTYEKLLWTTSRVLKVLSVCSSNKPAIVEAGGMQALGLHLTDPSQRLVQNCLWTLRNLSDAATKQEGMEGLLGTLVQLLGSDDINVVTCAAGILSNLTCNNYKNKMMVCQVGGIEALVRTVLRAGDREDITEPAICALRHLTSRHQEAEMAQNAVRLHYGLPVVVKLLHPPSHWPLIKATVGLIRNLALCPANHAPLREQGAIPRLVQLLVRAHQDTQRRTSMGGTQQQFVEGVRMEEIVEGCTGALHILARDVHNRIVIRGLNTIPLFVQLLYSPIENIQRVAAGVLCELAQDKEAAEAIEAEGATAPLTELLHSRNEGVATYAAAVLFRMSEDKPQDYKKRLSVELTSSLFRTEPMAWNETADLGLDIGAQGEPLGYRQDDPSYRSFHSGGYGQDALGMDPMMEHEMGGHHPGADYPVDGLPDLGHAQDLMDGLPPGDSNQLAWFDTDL
In words: Fluorescence polarization IC50 (beta-catenin / 5FAM-TCF4 10-53 competition). It is filed as binding. The conditions noted are these: read-out: beta-Catenin FP IC50. (Polarisation of emitted light reports the rotation of a fluorescent probe.)

The next data set is described as follows: CHI Log D procedure. It is filed as physicochemical. The note with it: pH 7.4, CHI Log D.
The next data set in a line: Solubility in PBS. The conditions noted are these: Solubility (uM). It is filed as physicochemical. Put shortly:
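Steps: ultracentrifuge the peptide PBS solution, inject the supernatant on HPLC, inject a 50 μM peptide DMSO solution as reference, then calculate solubility as area ratio (PBS/DMSO) × 50 uM.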

Data set [2] deals with T2, beta-catenin/TCF4 engagement (Homo sapiens, UniProt P35222).
T2 construct: expressed in transfected cells; host or cells: HEK293
T2 sequence (P35222 1-781): T1 sequence (P35222 1-781)
In words: Nano-BRET target engagement assay (B-cat-Halo & TCF4-Luc in HEK293 cells). It is filed as cell-based. The conditions noted are these: read-out: NanoBRET Abs IC50.

Drawing on patent US20240116985A1, “STAPLED PEPTIDES AND METHODS THEREOF” (priority 2020, published 2024), this text covers IC50, chromatographic logD and Solubility for seven molecules.

Converted amounts (≈) assume the structure as drawn. Read-outs that look alike come from different tables or passages of the source.

Turning to `CC(=O)N1CCC[C@]12CC=CCCCC1(CCCC=CCCCOC(=O)N3CC[C@@](C(=O)N[C@@H](Cc4ccccc4Cl)C(=O)N[C@@H](Cc4csc5ccccc45)C(=O)N[C@@H](CCC(N)=O)C(N)=O)(C3)NC(=O)[C@H](CC(C)C)NC(=O)[C@H](Cc3cccc(C(F)(F)F)c3)NC(=O)[C@H](C)NC(=O)[C@H](C)NC(=O)[C@H](CC(=O)O)NC(=O)[C@H](CC(=O)O)NC1=O)NC(=O)[C@H](CC(C)(C)C)NC(=O)[C@H](CC(=O)O)NC2=O` (stereo partly drawn) [I-1122, Ac-PL3-Asp-Npg-B5-Asp-Asp-Ala-Ala-3F3MeF-Leu-PyrS2-2C1F-BztA-Gln-NH2], the figures for the IC50 in data set [1] and in data set [2] were 34 nM and 12300 nM, respectively. Besides, the chromatographic logD (commonly lipophilicity estimated from chromatographic retention) in “CHI Log D procedure” stood at 2.41. Moreover, the Solubility (commonly how much of the substance goes into solution per volume) in “Solubility in PBS” is 14 µM (≈ 28.2 µg/mL).

`CC(=O)N1CCC[C@]12CC=CCCCC1(CCCC=CCCCOC(=O)N3CC[C@@](C(=O)N[C@@H](Cc4ccccc4Cl)C(=O)N[C@@H](Cc4csc5ccccc45)C(=O)N[C@@H](CCC(N)=O)C(N)=O)(C3)NC(=O)[C@H](CC(C)C)NC(=O)[C@H](Cc3ccc(C(F)(F)F)cc3)NC(=O)[C@H](C)NC(=O)[C@H](C)NC(=O)[C@H](CC(=O)O)NC(=O)[C@H](CC(=O)O)NC1=O)NC(=O)[C@H](CC(C)(C)C)NC(=O)[C@H](CC(=O)O)NC2=O` (stereo partly drawn) [I-1123, Ac-PL3-Asp-Npg-B5-Asp-Asp-Ala-Ala-4F3MeF-Leu-PyrS2-2C1F-BztA-Gln-NH2]: the figures for the IC50 in data set [1] and in data set [2] were 64 nM and 28500 nM, respectively. The molecule further registered a chromatographic logD in “CHI Log D procedure” of 2.46. The amount in solution in “Solubility in PBS” (Solubility) came to 12 µM (≈ 24.2 µg/mL).

With `COc1cccc(C[C@@H]2NC(=O)[C@H](C)NC(=O)[C@H](C)NC(=O)[C@H](CC(=O)O)NC(=O)[C@H](CC(=O)O)NC(=O)C3(CCCC=CCCCOC(=O)N4CC[C@@](C(=O)N[C@@H](Cc5ccccc5)C(=O)N[C@@H](Cc5csc6ccccc56)C(=O)N[C@@H](CCC(N)=O)C(N)=O)(C4)NC(=O)[C@H](CO)NC2=O)CCCC=CC[C@]2(CCCN2C(C)=O)C(=O)N[C@@H](CC(=O)O)C(=O)N[C@@H](CC2CCCCC2)C(=O)N3)c1` (stereo partly drawn) [I-1124, Ac-PL3-Asp-Cha-B5-Asp-Asp-Ala-Ala-3OMeF-Ser-PyrS2-Phe-BztA-Gln-NH2], the IC50 – broadly, the concentration needed to halve the response being measured – is 12 nM in data set [1] and above 20000 nM in data set [2] (absolute IC50). For the same molecule, the chromatographic logD in the data set “CHI Log D procedure” was found to be 2.22. In the data set “Solubility in PBS”, the Solubility was 47 µM (≈ 91.2 µg/mL).

On to `CC(=O)N1CCC[C@]12CC=CCCCC1(CCCC=CCCCOC(=O)N3CC[C@@](C(=O)N[C@@H](Cc4ccccc4)C(=O)N[C@@H](Cc4csc5ccccc45)C(=O)N[C@@H](CCC(N)=O)C(N)=O)(C3)NC(=O)[C@H](CO)NC(=O)[C@H](Cc3cccc(C(F)(F)F)c3)NC(=O)[C@H](C)NC(=O)[C@H](C)NC(=O)[C@H](CC(=O)O)NC(=O)[C@H](CC(=O)O)NC1=O)NC(=O)[C@H](CC1CCCCC1)NC(=O)[C@H](CC(=O)O)NC2=O` (stereo partly drawn) [I-1125, Ac-PL3-Asp-Cha-B5-Asp-Asp-Ala-Ala-3F3MeF-Ser-PyrS2-Phe-BztA-Gln-NH2], for which the IC50 in data set [1] was 16 nM; in data set [2] (absolute IC50), above 20000 nM. Further, the chromatographic logD in the data set “CHI Log D procedure” was determined as 2.39. In “Solubility in PBS”, this molecule showed a Solubility of 45 µM (≈ 89.1 µg/mL).

On to `CC(=O)N1CCC[C@]12CC=CCCCC1(CCCC=CCCCOC(=O)N3CC[C@@](C(=O)N[C@@H](Cc4ccccc4)C(=O)N[C@@H](Cc4csc5ccccc45)C(=O)N[C@@H](CCC(N)=O)C(N)=O)(C3)NC(=O)[C@H](CO)NC(=O)[C@H](Cc3ccc(C(F)(F)F)cc3)NC(=O)[C@H](C)NC(=O)[C@H](C)NC(=O)[C@H](CC(=O)O)NC(=O)[C@H](CC(=O)O)NC1=O)NC(=O)[C@H](CC1CCCCC1)NC(=O)[C@H](CC(=O)O)NC2=O` (stereo partly drawn) [I-1126, Ac-PL3-Asp-Cha-B5-Asp-Asp-Ala-Ala-4F3MeF-Ser-PyrS2-Phe-BztA-Gln-NH2], for which the IC50 in data set [1] was found to be 32 nM; in data set [2], 26800 nM. The chromatographic logD in “CHI Log D procedure” was determined as 2.42. The molecule further returned a Solubility in the data set “Solubility in PBS” of 49 µM (≈ 97 µg/mL).

In the case of `COc1cccc(C[C@@H]2NC(=O)[C@H](C)NC(=O)[C@H](C)NC(=O)[C@H](CC(=O)O)NC(=O)[C@H](CC(=O)O)NC(=O)C3(CCCC=CCCCOC(=O)N4CC[C@@](C(=O)N[C@@H](Cc5ccccc5)C(=O)N[C@@H](Cc5csc6ccccc56)C(=O)N[C@@H](CCC(N)=O)C(N)=O)(C4)NC(=O)[C@H](CC(C)C)NC2=O)CCCC=CC[C@]2(CCCN2C(C)=O)C(=O)N[C@@H](CC(=O)O)C(=O)N[C@@H](CC(C)(C)C)C(=O)N3)c1` (stereo partly drawn) [I-1127, Ac-PL3-Asp-Npg-B5-Asp-Asp-Ala-Ala-3OMeF-Leu-PyrS2-Phe-BztA-Gln-NH2], the IC50 in data set [1] turned out to be 18 nM; in data set [2], 5400 nM. This molecule gave a chromatographic logD in “CHI Log D procedure” of 2.18. For the same molecule, the concentration in solution in the data set “Solubility in PBS” (Solubility) was 47 µM (≈ 91.2 µg/mL).

Turning to `CC(=O)N1CCC[C@]12CC=CCCCC1(CCCC=CCCCOC(=O)N3CC[C@@](C(=O)N[C@@H](Cc4ccccc4)C(=O)N[C@@H](Cc4csc5ccccc45)C(=O)N[C@@H](CCC(N)=O)C(N)=O)(C3)NC(=O)[C@H](CC(C)C)NC(=O)[C@H](Cc3cccc(C(F)(F)F)c3)NC(=O)[C@H](C)NC(=O)[C@H](C)NC(=O)[C@H](CC(=O)O)NC(=O)[C@H](CC(=O)O)NC1=O)NC(=O)[C@H](CC(C)(C)C)NC(=O)[C@H](CC(=O)O)NC2=O` (stereo partly drawn) [I-1128, Ac-PL3-Asp-Npg-B5-Asp-Asp-Ala-Ala-3F3MeF-Leu-PyrS2-Phe-BztA-Gln-NH2], the IC50 in data set [1] turned out to be 20 nM; in data set [2] it was 8100 nM. Besides, the chromatographic logD in the data set “CHI Log D procedure” stood at 2.3. In addition, the concentration in solution in the data set “Solubility in PBS” (Solubility) was 23 µM (≈ 45.5 µg/mL).
